{
  "source": "patent US20170360795A1",
  "about": "“TREATMENT OF CANCERS USING PI3 KINASE ISOFORM MODULATORS” (INFINITY PHARMACEUTICALS, INC., priority 2013, published 2017)",
  "key": {"[1]": {"system": "hemodynamic and electrocardiographic parameters", "assay": "Cardiovascular telemetry study", "format": "in vivo, cynomolgus monkey", "conditions": "up to 150 mg/kg", "from_the_text": "Four non-naive, male monkeys implanted with radiotelemetry transmitters were utilized during the conduct of this study."}, "[2]": {"system": "pAKT, pPRAS40 and pS6 in SU-DHL-6, SU-DHL-4 and Ri-1", "assay": "western blot of PI3K pathway proteins in DLBCL cell lines", "format": "cell-based", "procedure": "At 1 hour after the treatment, levels of various proteins were assessed by western blot, the results of which are shown in FIG. 31.\nActivation of the PI3K pathway is an important component of normal B-cell receptor (BCR) signaling and has been implicated in the pathogenesis of DLBCL. […] There was rapid modulation of phospho-AKT and phospho-PRAS40 by 30 minutes, whereas modulation of phospho-S6 was not detected until after 8 hours."}, "serum biomarkers": {"system": "serum biomarkers", "assay": "Serum biomarkers in patients, 28 day cycles", "format": "in vivo, human"}, "[3]": {"system": "serum cytokines/chemokines", "assay": "serum cytokines/chemokines of patients by Milliplex immuno-assay", "format": "in vivo, human", "procedure": "Serum concentrations of a panel of human cytokines/chemokines were determined by Milliplex 96-well immuno-assay as described below.\nthe blood was allowed to clot for at least 30 minutes before centrifugation for 10 minutes at 1000×g. Serum was removed and either assayed immediately or aliquoted and stored at ≦−20° C. When using frozen samples, it is recommended to thaw the samples completely, mix well by vortexing and centrifuge prior to use in the assay to remove particulates.\n1.0 mL deionized water was added to the bottle containing lyophilized Serum Matrix (catalog number MX HSM from MILLIPLEX® Map), and was allowed to be mixed will for at least 10 minutes for complete reconstitution.\n200 μL of wash buffer was added into each well of the plate. The plate was sealed and mixed on a plate shaker for 10 minutes at room temperature (20-25° C.). The wash buffer was decanted and the residual amount was removed from all wells by inverting the plate and tapping it smartly onto absorbent towels several times. 25 μL of each standard or control was added into the appropriate wells. Assay buffer was used for 0 pg/mL standard (Background). 25 μL of assay buffer was added to the sample wells. 25 μL of appropriate matrix solution was added to the background, standards, and control wells. 25 μL of serum sample was added into the appropriate wells. 25 μL of the mixed or premixed Beads for the tested cytokines/chemokines was added to each well. The plate was sealed with a plate sealer, wrapped with foil and incubated with agitation on a plate shaker overnight at 4° C. or 2 hours at room temperature (20-25° C.). An overnight incubation (16-18 hr) may improve assay sensitivity for some analytes. […]\nThe plate was run on Luminex 200™, HTS, FLEXMAP 3D™ or MAGPIX® with xPONENT software. The Median Fluorescent Intensity (MFI) data was saved and analyzed using a 5-parameter logistic or spline curve-fitting method for calculating cytokine/chemokines concentrations in samples.\nThe serum analytes examined included: (1) human cytokines/chemokinds (EGF, CCL11, FGF-2, Flt-3 ligand, CX3CL1, G-CSF, GM-CSF, CXCL1, CXCL10, IFNα2, IFNγ, IL-α, IL-β, IL-1ra, IL-2, sIL-2Rα, IL-3, IL-4, IL-5, IL-6, IL-7, IL-8, IL-9, IL-10, IL-12 (p40), IL-12 (p70), IL-13, IL-15, IL-17, IL-1ra, IL-1α, IL-13, IL-2, IL-3, CCL2, CCL7, CCL22, CCL3, CCL4, PDGF-AA, PDGF-AB/BB, CCL5, sCD40L, sIL-2Rα, TGFα, TNFα, TNFβ, VEGF, CCL21, CXCL13, CCL27, CXCL5, CCL24, CCL26, CCL1, IL-16, IL-20, IL-21, IL-23, IL-28, IL-33, LIF, CCL8, CCL13, CCL15, SCF, CXCL12, CCL17, TPO, TRAIL, and TSLP); and (2) matrix metaloproteinases (MMP-1, MMP-2, MMP-3, MMP-7, MMP-9, MMP-10, MMP-12, MMP-13, TIMP-1, and TIMP-2). The change in serum concentration of an analyte was determined by comparing the pre- and post-treatment serum samples."}, "[4]": {"assay": "embryo/fetal developmental toxicity study in rabbits", "conditions": "female, rabbit, in vivo, 75 mg/kg/day; pregnant rabbits, last day of dosing; read-out: mean AUCO24 hr at the NOAEL"}, "U2932": {"system": "U2932", "assay": "cellular growth inhibition assay (72 hour CTG), DLBCL", "format": "cell-based"}, "CLL cells": {"system": "CLL cells", "assay": "production of reactive oxygen species", "format": "cell-based", "conditions": "n=6", "from_the_text": "(FIGS. 35 and 36). […] In addition, this direct inhibitory effect on CLL cells in the lymph nodes could lead to rapid and prolonged responses in cancer patients."}, "CLL/SLL": {"system": "CLL/SLL", "assay": "Clinical activity in CLL/SLL patients", "format": "in vivo, human"}, "[5]": {"assay": "embryo/fetal developmental toxicity study in rats", "conditions": "female, rat, in vivo, 35 mg/kg/day; pregnant rats, last day of dosing; read-out: mean AUCO24 hr at the NOAEL"}, "[6]": {"assay": "Phase 1 dose-escalation study in hematologic malignancies: pharmacokinetics", "format": "in vivo, human", "conditions": "patients, over the dose range studied", "procedure": "PK and PD markers were evaluated after the first dose (e.g., 8 mg BID) and at steady state. PD activity (PI3K inhibition) in whole blood was evaluated using a basophil activation assay which measured reduction in CD63 expression on the surface of basophils following ex vivo stimulation."}, "[7]": {"system": "phospho-AKT in OCI-LY-8 cells", "assay": "phospho-AKT after BCR crosslinking", "format": "cell-based", "from_the_text": "These biochemical findings indicate a mechanistic rationale for combination of PI3K-δ,γ and BTK inhibition."}, "[8]": {"conditions": "time-course in selected DLBCL cell lines"}},
  "data": [
    {"smiles": "C[C@H](Nc1ncnc2[nH]cnc12)c1cc2cccc(Cl)c2c(=O)n1-c1ccccc1", "note": "[Compound 292]", "values": [
      {"measurement": "waveform abnormalities or arrhythmias", "setting": "[1]", "value": "no waveform abnormalities or arrhythmias"},
      {"measurement": "levels of pAKT, pPRAS40 and pS6", "setting": "[2]; 0.001-1 μM, 1 hour, western blot, SU-DHL-6, SU-DHL-4 and Ri-1", "value": "decrease"},
      {"measurement": "time to detection of modulation of phospho-S6", "setting": "[2]; [8]", "value": "> 8", "unit": "h"},
      {"measurement": "time to modulation of phospho-AKT and phospho-PRAS40", "setting": "[2]; [8]", "value": "≤ 30", "unit": "min"},
      {"measurement": "levels of CLL biomarkers in serum", "setting": "serum biomarkers; 25 mg BID", "value": "decrease"},
      {"measurement": "levels of T-cell lymphoma biomarkers in serum", "setting": "serum biomarkers; 25 mg BID", "value": "decrease"},
      {"measurement": "levels of iNHL biomarkers in serum", "setting": "serum biomarkers; 25 mg BID", "value": "decrease"},
      {"measurement": "levels of lymphoma biomarkers in serum", "setting": "serum biomarkers; 25 mg BID", "value": "decrease"},
      {"measurement": "levels of CLL biomarkers in serum", "setting": "serum biomarkers; 25 mg or 75 mg BID", "value": "decrease"},
      {"measurement": "levels of iNHL biomarkers in serum", "setting": "serum biomarkers; 25 mg or 75 mg BID", "value": "decrease"},
      {"measurement": "serum levels of CXCL13, CCL3, CCL4, CCL17, CCL22, TNFα and IL-12 (p40)", "setting": "[3]; CLL patients, 25 mg BID, C1D8 and C2D1 vs C1D1 predose", "value": "substantially reduced"},
      {"measurement": "serum concentrations of CXCL13, CCL4, CCL17, CCL22 and TNF-α", "setting": "[3]; CLL/SLL and iNHL/MCL/FL patients", "value": "decreased serum concentrations"},
      {"measurement": "serum levels of CXCX13, CCL17, CCL22 and TNFα", "setting": "[3]; iNHL patients, 28 days cycle, 25 mg BID", "value": "significant reduction"},
      {"measurement": "serum levels of CXCL13, CCL17 and MMP-9", "setting": "[3]; lymphoma patients, 25 mg BID, C1D8 and C2D1 vs C1D1", "value": "substantially reduced"},
      {"measurement": "AUC", "setting": "[4]", "value": 66200, "unit": "ng·h/mL"},
      {"measurement": "IC50, cellular growth inhibition", "setting": "U2932", "value": "non responsive"},
      {"measurement": "production of reactive oxygen species", "setting": "CLL cells", "value": "enhanced"},
      {"measurement": "clinical activity", "setting": "CLL/SLL", "value": "rapid onset of clinical activity"},
      {"measurement": "AUC", "setting": "[5]", "value": 62200, "unit": "ng·h/mL"},
      {"measurement": "plasma Cmax and AUC versus dose", "setting": "[6]", "value": "dose-proportional increases"},
      {"measurement": "phospho-AKT increase after BCR crosslinking", "setting": "[7]", "value": "completely inhibited"}
    ]}
  ]
}
